Measurements as given in patent publication US5726179A, “Muscarinic agonists” (The University of Toledo, priority 1996, dated 1998).
Counter-ions that a name gives are not always drawn.

How the values were obtained:
[1] = test system: M2 receptors; conditions: background; cited from earlier work
[2] = test system: M3 receptors; conditions: background; cited from earlier work
[3] = test system: experimental animals; conditions: background, cited from earlier work; for reverse cognitive impairments in experimental animals: natural product agonist ligands
[4] = test system: muscarinic receptors; assay: PI cortex: agonist activity at muscarinic receptors in rat central nervous system; type: biochemical; conditions: mean from one to three experiments, each in triplicate
[5] = molecular target: muscarinic receptors; assay: Binding affinity at muscarinic receptors in rat central nervous system, ligand [3H]-QNB; conditions: rat CNS; mean from one to three experiments, each in triplicate
Source text: Data represent the mean from one
to three experiments, each performed in triplicate.

Row | Compound | PI cortex (at 100 μM) [4] [%] | further results
1 | CCN(CC)CC1CCCCN1CC(=O)N1c2ccccc2C(=O)Nc2cccnc21 (stereo not drawn) [AF-DX 116] |  | selective antagonist for M2 receptors [1]: selective antagonists
2 | O[Si](CCCN1CCCCC1)(c1ccc(F)cc1)C1CCCCC1 (stereo not drawn) [p-F-hexahydrosiladifenidol] |  | selective antagonist for M3 receptors [2]: selective antagonists
3 | COC(=O)C1=CCCN(C)C1 [arecoline] |  | reverse cognitive impairments in experimental animals [3]: reverse cognitive impairments
4 | 5-(3-Methylpropynyloxycarbonyl)-1,4,5,6-tetrahydropyrimidine HCl [CDD-0177-A] | 22 ± 3 | IC50 [5]: 45 µM
5 | C#C/C(C)=C/COC(=O)C1CN=CNC1 (stereo not drawn) [CDD-0161-A, (trans)-5-(3-Methyl-2-penten-4-ynyloxycarbonyl)-1,4,5,6-tetrahydropyrimidine HCl] | 35 ± 5.6 | 
6 | CN1CCN(CC(=O)N2c3ccccc3C(=O)Nc3cccnc32)CC1 [pirenzepine] |  | produce memory impairments in experimental animals ([3]; M1 antagonist): produce memory impairments
7 | C#C/C(C)=C\COC(=O)C1CN=CNC1 (stereo not drawn) [CDD-0162-A, (cis)-5-(3-Methyl-2-penten-4-ynyloxycarbonyl)-1,4,5,6-tetrahydropyrimidine HCl] | 50 ± 4.3 | 
8 | CC#CCOC(=O)C1CN=CNC1.Cl (stereo not drawn) [CDD-0171-A, 5-(2-Butynyloxycarbonyl)-1,4,5,6-tetrahydropyrimidine HCl] | 140 | 
9 | O=C(OCC#Cc1ccccc1)C1CN=CNC1 (stereo not drawn) [CDD-0189-A] | 3 ± 8.2 | 
10 | C#CCCOC(=O)C1CN=CNC1 (stereo not drawn) [CDD-0195-A] | 100 ± 15 | 
11 | CC[C@@H]1C(=O)OC[C@@H]1Cc1cncn1C [pilocarpine] |  | reverse cognitive impairments in experimental animals [3]: reverse cognitive impairments
